# Values joined by “and” are separate entries in the source; they are usually repeats but may differ in a detail not shown here. Equal values may be shown once.
# Legend:
# Assay in all cases: ATP hydrolysis assay
# ObaO_WT = format: biochemical, Pseudomonas fluorescens; settings: for ATP hydrolysis activity, inhibitory curve data point: OB, replicates, sheet Fig.S11b
# Experimental: (§1) 200 nM EcThrRS wide type and mutants, ObaO and ObaO_S464G mutant were incubated with serially diluted OB (0 to 10 μM for EcThrRS, 0 to 40 μM for ObaO) in a buffer containing 25 mM HEPES pH 7.5, 50 mM NaCl, 40 mM MgCl2, 30 mM KCl, 0.01 mg/mL bovine serum albumin (BSA), and 0.004% Tween-20 at 37 °C for 4 h and then mixed 1:1 with a substrate mixture containing 4 μM ATP, 40 μM L-threonine, 25 mM HEPES pH 7.5, 50 mM NaCl, 40 mM MgCl2, 30 mM KCl, 0.01 mg/mL BSA, and 0.004% Tween-20. The ATP hydrolysis reaction was performed at 37 °C for 4 h.
# (§2) After incubation, the detection solution from the Kinase-Glo® luminescent kit (Promega, USA) was added to the reaction system at a 1:1 ratio, and the mixture was gently shaken for 10 min. The chemiluminescence signal was measured using a microplate reader (Tecan, USA). All experiments were performed in four replicates. The data were processed using GraphPad Prism 8 software.
# ObaO_S464G = format: biochemical, Pseudomonas fluorescens; settings: for ATP hydrolysis activity, inhibitory curve data point: OB, replicates, sheet Fig.S11b
# Experimental: as §1, §2
# EcThrRS_G463A = target: T1, EcThrRS_G463A (Escherichia coli, UniProt P0A8M3, G463A); format: biochemical; settings: ATP hydrolysis activity
# T1 construct: The E. coli ThrRS (residues 242-642, Supplementary Note 1) wild type; 6xHis (C); made in house; host or cells: E. coli BL21 (DE3)
# Experimental: as §1, §2
# EcThrRS_L489M = target: T2, EcThrRS_L489M (Escherichia coli, UniProt P0A8M3, L489M); format: biochemical; settings: for ATP hydrolysis activity, inhibitory curve data point: OB, replicates, sheet Fig.2b
# T2 construct: The E. coli ThrRS (residues 242-642, Supplementary Note 1) wild type; 6xHis (C); made in house; host or cells: E. coli BL21 (DE3)
# Experimental: as §1, §2
# EcThrRS_G463S = target: T3, EcThrRS_G463S (Escherichia coli, UniProt P0A8M3, G463S); format: biochemical; settings: for ATP hydrolysis activity, inhibitory curve data point: OB, replicates, sheet Fig.2b
# T3 construct: The E. coli ThrRS (residues 242-642, Supplementary Note 1) wild type; 6xHis (C); made in house; host or cells: E. coli BL21 (DE3)
# Experimental: as §1, §2
# EcThrRS_A316N = target: T4, EcThrRS_A316N (Escherichia coli, UniProt P0A8M3, A316N); format: biochemical; settings: for ATP hydrolysis activity, inhibitory curve data point: OB, replicates, sheet Fig.S4b
# T4 construct: The E. coli ThrRS (residues 242-642, Supplementary Note 1) wild type; 6xHis (C); made in house; host or cells: E. coli BL21 (DE3)
# Experimental: as §1, §2
# T2 sequence (P0A8M3 242-642 L489M): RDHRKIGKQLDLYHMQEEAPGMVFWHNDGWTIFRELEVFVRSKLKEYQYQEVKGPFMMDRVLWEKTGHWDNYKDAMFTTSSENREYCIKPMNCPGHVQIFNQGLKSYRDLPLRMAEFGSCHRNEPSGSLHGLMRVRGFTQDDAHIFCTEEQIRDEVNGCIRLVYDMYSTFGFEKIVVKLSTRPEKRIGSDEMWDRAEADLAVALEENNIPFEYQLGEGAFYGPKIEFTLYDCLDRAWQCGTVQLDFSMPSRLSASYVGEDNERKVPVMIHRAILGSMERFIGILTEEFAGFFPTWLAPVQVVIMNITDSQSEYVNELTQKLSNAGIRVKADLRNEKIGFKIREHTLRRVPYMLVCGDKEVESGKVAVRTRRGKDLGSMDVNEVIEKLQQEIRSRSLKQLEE
# T4 sequence (P0A8M3 242-642 A316N): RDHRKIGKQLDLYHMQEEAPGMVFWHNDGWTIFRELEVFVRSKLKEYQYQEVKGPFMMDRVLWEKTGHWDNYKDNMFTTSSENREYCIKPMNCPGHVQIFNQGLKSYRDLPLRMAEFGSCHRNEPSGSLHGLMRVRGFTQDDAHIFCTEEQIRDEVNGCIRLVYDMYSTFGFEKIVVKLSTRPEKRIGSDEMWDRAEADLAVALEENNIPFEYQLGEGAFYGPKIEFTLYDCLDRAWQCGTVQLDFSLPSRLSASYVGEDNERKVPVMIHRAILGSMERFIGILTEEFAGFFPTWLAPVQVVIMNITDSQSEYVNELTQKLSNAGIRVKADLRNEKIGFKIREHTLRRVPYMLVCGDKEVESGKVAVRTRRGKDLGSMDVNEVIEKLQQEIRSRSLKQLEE
# T3 sequence (P0A8M3 242-642 G463S): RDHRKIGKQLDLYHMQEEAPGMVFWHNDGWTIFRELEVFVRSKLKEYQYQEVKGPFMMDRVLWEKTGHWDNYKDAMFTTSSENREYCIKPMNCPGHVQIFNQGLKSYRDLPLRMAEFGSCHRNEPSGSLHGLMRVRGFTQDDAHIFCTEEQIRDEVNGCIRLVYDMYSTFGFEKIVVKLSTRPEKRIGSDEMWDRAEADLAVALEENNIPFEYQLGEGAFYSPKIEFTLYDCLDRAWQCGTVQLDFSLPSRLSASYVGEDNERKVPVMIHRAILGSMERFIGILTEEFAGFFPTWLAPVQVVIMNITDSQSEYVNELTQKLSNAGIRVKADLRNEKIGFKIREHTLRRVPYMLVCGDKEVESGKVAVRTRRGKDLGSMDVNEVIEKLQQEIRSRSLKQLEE
# T1 sequence (P0A8M3 242-642 G463A): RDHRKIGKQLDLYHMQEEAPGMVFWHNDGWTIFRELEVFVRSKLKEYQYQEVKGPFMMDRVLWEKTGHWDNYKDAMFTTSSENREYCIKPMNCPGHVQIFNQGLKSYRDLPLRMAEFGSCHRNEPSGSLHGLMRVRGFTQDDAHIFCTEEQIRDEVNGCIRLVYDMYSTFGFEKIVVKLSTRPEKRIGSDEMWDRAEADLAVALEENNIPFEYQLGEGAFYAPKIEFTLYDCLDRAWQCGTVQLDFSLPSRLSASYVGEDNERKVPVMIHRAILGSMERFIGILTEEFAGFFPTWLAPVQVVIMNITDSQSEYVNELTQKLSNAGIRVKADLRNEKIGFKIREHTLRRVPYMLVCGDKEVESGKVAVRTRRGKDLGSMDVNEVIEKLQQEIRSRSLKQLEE
smiles,measurement,setting,value
"O=C(N[C@@H]1C(=O)O[C@@H]1Cc1ccc([N+](=O)[O-])cc1)c1cccc(O)c1O [OB, Obafluorin]",inhibitory effect,ObaO_WT; ATP hydrolysis activity,no inhibitory effect
same,"ATP hydrolysis activity, inhibitory curve data point","ObaO_WT; Log10 Conc. 1.290, ObaO_WT",107.974 and 109.176 and 107.694 and 98.285
same,"ATP hydrolysis activity, inhibitory curve data point","ObaO_WT; Log10 Conc. 1.591, ObaO_WT",108.081 and 109.543 and 108.587 and 102.335
same,"ATP hydrolysis activity, inhibitory curve data point","ObaO_WT; Log10 Conc. 1.892, ObaO_WT",104.532 and 105.736 and 104.839 and 104.593
same,"ATP hydrolysis activity, inhibitory curve data point","ObaO_WT; Log10 Conc. 2.193, ObaO_WT",105.347 and 104.330 and 104.759 and 104.369
same,"ATP hydrolysis activity, inhibitory curve data point","ObaO_WT; Log10 Conc. 2.494, ObaO_WT",105.496 and 103.616 and 104.222 and 104.732
same,"ATP hydrolysis activity, inhibitory curve data point","ObaO_WT; Log10 Conc. 2.796, ObaO_WT",106.437 and 103.177 and 103.705 and 104.207
same,"ATP hydrolysis activity, inhibitory curve data point","ObaO_WT; Log10 Conc. 3.097, ObaO_WT",106.181 and 102.182 and 103.687 and 102.015
same,"ATP hydrolysis activity, inhibitory curve data point","ObaO_WT; Log10 Conc. 3.398, ObaO_WT",106.327 and 105.039 and 104.877 and 99.875
same,"ATP hydrolysis activity, inhibitory curve data point","ObaO_WT; Log10 Conc. 3.699, ObaO_WT",106.394 and 102.812 and 104.598 and 101.892
same,"ATP hydrolysis activity, inhibitory curve data point","ObaO_WT; Log10 Conc. 4.000, ObaO_WT",107.419 and 105.942 and 102.834 and 91.914
same,"ATP hydrolysis activity, inhibitory curve data point","ObaO_WT; Log10 Conc. 4.301, ObaO_WT",100.516 and 99.049 and 100.129 and 101.285
same,IC50,ObaO_S464G; ATP hydrolysis activity,3900 nM
same,"ATP hydrolysis activity, inhibitory curve data point","ObaO_S464G; Log10 Conc. 1.290, ObaO_S464G",99.512 and 99.495 and 99.321 and 98.415
same,"ATP hydrolysis activity, inhibitory curve data point","ObaO_S464G; Log10 Conc. 1.591, ObaO_S464G",100.192 and 100.232 and 100.159 and 99.124
same,"ATP hydrolysis activity, inhibitory curve data point","ObaO_S464G; Log10 Conc. 1.892, ObaO_S464G",100.052 and 100.356 and 99.951 and 99.355
same,"ATP hydrolysis activity, inhibitory curve data point","ObaO_S464G; Log10 Conc. 2.193, ObaO_S464G",99.838 and 99.793 and 100.063 and 99.551
same,"ATP hydrolysis activity, inhibitory curve data point","ObaO_S464G; Log10 Conc. 2.494, ObaO_S464G",100.255 and 99.793 and 99.917 and 100.035
same,"ATP hydrolysis activity, inhibitory curve data point","ObaO_S464G; Log10 Conc. 2.796, ObaO_S464G",99.484 and 99.326 and 99.169 and 98.438
same,"ATP hydrolysis activity, inhibitory curve data point","ObaO_S464G; Log10 Conc. 3.097, ObaO_S464G",97.897 and 97.852 and 97.621 and 97.352
same,"ATP hydrolysis activity, inhibitory curve data point","ObaO_S464G; Log10 Conc. 3.398, ObaO_S464G",93.815 and 92.992 and 93.578 and 91.403
same,"ATP hydrolysis activity, inhibitory curve data point","ObaO_S464G; Log10 Conc. 3.699, ObaO_S464G",77.343 and 76.749 and 76.793 and 77.009
same,"ATP hydrolysis activity, inhibitory curve data point","ObaO_S464G; Log10 Conc. 4.000, ObaO_S464G",40.598 and 39.832 and 38.831 and 45.976
same,"ATP hydrolysis activity, inhibitory curve data point","ObaO_S464G; Log10 Conc. 4.301, ObaO_S464G",-1.615 and -1.887 and 0.161 and 3.342
same,inhibitory effect,EcThrRS_G463A,no inhibitory effect
same,IC50,EcThrRS_L489M; ATP hydrolysis activity,215 nM
same,"ATP hydrolysis activity, inhibitory curve data point","EcThrRS_L489M; Log10 Conc. 3.097, L489M",14.911 and 30.795 and 20.792 and 22.166
same,"ATP hydrolysis activity, inhibitory curve data point","EcThrRS_L489M; Log10 Conc. 3.398, L489M",25.404 and -0.594 and -13.763 and 3.682
same,"ATP hydrolysis activity, inhibitory curve data point","EcThrRS_L489M; Log10 Conc. 3.699, L489M",26.774 and 18.620 and -26.210 and 6.396
same,"ATP hydrolysis activity, inhibitory curve data point","EcThrRS_L489M; Log10 Conc. 4.000, L489M",5.096 and 5.493 and 1.083 and 8.709
same,inhibition at 5 µM,EcThrRS_G463S; 5 μM OB,~10%
same,inhibitory activity,EcThrRS_G463S; ATP hydrolysis activity,poor activity
same,"ATP hydrolysis activity, inhibitory curve data point","EcThrRS_G463S; Log10 Conc. 1.279, G463S",106.793 and 98.818 and 94.863 and 99.954
same,"ATP hydrolysis activity, inhibitory curve data point","EcThrRS_G463S; Log10 Conc. 1.597, G463S",100.752 and 93.821 and 90.230 and 89.239
same,"ATP hydrolysis activity, inhibitory curve data point","EcThrRS_G463S; Log10 Conc. 1.892, G463S",119.110 and 112.303 and 110.507 and 107.832
same,"ATP hydrolysis activity, inhibitory curve data point","EcThrRS_G463S; Log10 Conc. 2.193, G463S",113.765 and 106.055 and 104.056 and 103.914
same,"ATP hydrolysis activity, inhibitory curve data point","EcThrRS_G463S; Log10 Conc. 2.495, G463S",113.955 and 101.766 and 100.028 and 98.945
same,"ATP hydrolysis activity, inhibitory curve data point","EcThrRS_G463S; Log10 Conc. 2.796, G463S",114.391 and 100.345 and 101.496 and 101.074
same,"ATP hydrolysis activity, inhibitory curve data point","EcThrRS_G463S; Log10 Conc. 3.097, G463S",109.765 and 91.814 and 95.122 and 94.032
same,"ATP hydrolysis activity, inhibitory curve data point","EcThrRS_G463S; Log10 Conc. 3.398, G463S",99.125 and 85.681 and 84.901 and 83.398
same,"ATP hydrolysis activity, inhibitory curve data point","EcThrRS_G463S; Log10 Conc. 3.699, G463S",98.676 and 85.750 and 87.909 and 87.887
same,"ATP hydrolysis activity, inhibitory curve data point","EcThrRS_G463S; Log10 Conc. 4.000, G463S",100.800 and 85.432 and 86.068 and 84.275
same,IC50,EcThrRS_A316N; ATP hydrolysis activity,848 nM
same,"ATP hydrolysis activity, inhibitory curve data point","EcThrRS_A316N; Log10 Conc. 0.690, A316N",85.962 and 86.560 and 99.695 and 84.767
same,"ATP hydrolysis activity, inhibitory curve data point","EcThrRS_A316N; Log10 Conc. 0.991, A316N",88.637 and 98.163 and 100.359 and 100.821
same,"ATP hydrolysis activity, inhibitory curve data point","EcThrRS_A316N; Log10 Conc. 1.290, A316N",94.677 and 95.220 and 104.669 and 107.135
same,"ATP hydrolysis activity, inhibitory curve data point","EcThrRS_A316N; Log10 Conc. 1.591, A316N",79.114 and 84.617 and 87.973 and 87.592
same,"ATP hydrolysis activity, inhibitory curve data point","EcThrRS_A316N; Log10 Conc. 1.892, A316N",95.097 and 93.442 and 93.401 and 99.302
same,"ATP hydrolysis activity, inhibitory curve data point","EcThrRS_A316N; Log10 Conc. 2.193, A316N",78.735 and 83.708 and 90.525 and 92.235
same,"ATP hydrolysis activity, inhibitory curve data point","EcThrRS_A316N; Log10 Conc. 2.494, A316N",68.683 and 74.410 and 84.890 and 82.431
same,"ATP hydrolysis activity, inhibitory curve data point","EcThrRS_A316N; Log10 Conc. 2.796, A316N",50.753 and 55.935 and 67.595 and 73.554
same,"ATP hydrolysis activity, inhibitory curve data point","EcThrRS_A316N; Log10 Conc. 3.097, A316N",29.054 and 40.656 and 45.720 and 53.072
same,"ATP hydrolysis activity, inhibitory curve data point","EcThrRS_A316N; Log10 Conc. 3.398, A316N",-3.828 and 7.860 and 7.462 and 26.771
same,"ATP hydrolysis activity, inhibitory curve data point","EcThrRS_A316N; Log10 Conc. 3.699, A316N",7.311 and 15.246 and 17.984 and 36.982
